Where two headings read alike, the source gives them in different places.
How the values were obtained:
[1] = test system: children with ADHD; experiment: Experiment 9: spatial WM task performance; type: in vivo, human; details: medicated vs unmedicated state; Dexedrine 20 mg, methylphenidate 10 mg
Excerpt: Experiment. Participants (a total of N=14, evenly divided between boys and girls) were referred to this study by local ADHD specialists. All participants had been diagnosed with the combined subtype of ADHD and were currently undergoing treatment with stimulant medication. Inclusion criteria include age 8-12 years, no mental retardation or neurological impairment, and full-scale IQ in the normal range as measured by the WISC-III (Wechsler, 1991). Participants were paid $10/hour for their participation, and were reimbursed for transportation costs. To increase motivation, the children were also rewarded with toys for good performance.
(§1) EEG and behavioral data were collected while the children performed low load and high load versions of the spatial WM task described above. […] Participants were tested on each of three occasions at the same time of day with a week between sessions. The first occasion was an orientation and training session in which subjects learned and practiced the tasks until performance reached asymptote. On the other occasions they were tested either while medicated or while abstaining from their normal dose of medication, with order of treatment counterbalanced across subjects. […]

[2] = test system: children with ADHD; experiment: Experiment 9: EEG and ERP; type: in vivo, human
Procedure: as §1, with “subjects. A scientist not otherwise involved with the study maintained the schedule of medication and no-medication days so that the research assistant performing the testing and preliminary analyses was blind to medication status. Data from the orientation day was not included in formal analyses. On the other days subjects first performed a single 23-trial block of each of the task conditions as a warm-up procedure. They then performed 4 more 23-trial blocks of each test version in randomized order.” for “subjects.”
In each session, multi-channel EEG was recorded from multiple “10-10 System” scalp locations (bandpass 0.1-100 Hz, 256 Hz sampling rate, linked mastoid reference) using a custom-made electrode cap. EOG was recorded from above and below the left eye, and from outer canthus of each eye. […]

[3] = test system: healthy adults; experiment: Experiment 1: subjective sleepiness ratings (Karolinska Sleepiness Scale); type: in vivo, human; details: 50 mg diphenhydramine, 200-mg caffeine or 0.88 g/kg ethanol, four post-treatment intervals
Procedure: (§2) Each subject participated in […] sessions. The first session was a practice session in which subjects learned to perform the working memory tasks. After training, all subjects participated in 4 sessions, separated by at least one week. […] The four drug sessions were conducted according to a double blind, placebo-controlled, randomized, counterbalanced, crossover design. In each session, subjects consumed two pills (unmarked gelatin capsules) and a mixed drink. […] The pills were given with a 500 cc drink containing either 0.88 g/kg 95% ethanol mixed in fruit juice (adequate to produce an average peak blood alcohol content (BAC) of 0.08), or containing 495 cc of fruit juice with 5 cc of alcohol floated on top to mimic the smell and taste of the treatment drink.
(§3) Each drug session involved a baseline recording before drug administration. This was followed by four post-drug recording intervals, each lasting approximately 40 minutes. The first interval began 0.5 hrs after drug ingestion; the remaining three intervals occurred hourly thereafter. A scientist not otherwise involved in the experiment administered a Breathalyzer test at the beginning of each interval. Subjects also completed the Karolinska and Stanford sleepiness scales at each test period.

[4] = average
Procedure: as §2, §3

[5] = test system: healthy adults; experiment: Experiment 1: n-back working memory task performance; type: in vivo, human; details: for Accuracy in working memory task vs placebo / Reaction time in working memory task vs placebo: low load and high load tasks
Excerpt: Subjects performed two difficulty levels of a continuous performance, n-back working memory task, versions of which we have employed in many other EEG studies. In this task, subjects were required to compare the spatial location of the current stimulus with that of one presented previously. Briefly, single capital letter stimuli, drawn randomly from a set of twelve, were presented for 200 msec once every 4.5 sec on a computer monitor. At 1.3 sec prior to stimulus onset, a warning cue (a small “x”) appeared in the center of the screen for 200 msec. The letter stimulus occurred 1.3 sec after the cue in one of twelve possible locations on the monitor. The identity of the letter and its spatial position varied randomly from trial to trial. A small fixation dot was continuously present at the center of the screen. In a low load version of the task, subjects were required to match the position of the current stimulus with the position of the very first stimulus presented in the block. In a high load version of the task, subjects compared the current stimulus with that presented two trials previously. In this version subjects were required to remember two positions (and their sequential order) for the duration of two trials (nine seconds), and to update that information on each subsequent trial. In both versions of the task, stimuli were presented in blocks of 53 trials (the first three trials were warm-up trials and were discarded from analysis). Matches occurred randomly on 50% of the trials. Subjects were instructed to respond as quickly and as accurately as possible.
as §2, §3
(§4) EEG was continuously recorded from 28 scalp electrodes using a digitally linked-mastoids reference. EOG was recorded from electrodes placed above and below one eye, and at the other canthi of each eye. Physiological signals were band-pass filtered at 0.01 to 100 Hz and sampled at 256 Hz. Automated artifact detection was followed by application of adaptive eye contaminant removal filters. The data were then visually inspected and data segments containing possible residual artifacts were eliminated from subsequent analyses. To examine the effects of the pharmacological interventions on individual EEG or behavioral variables, univariate repeated measures analyses of variance (ANOVAs) were used to compare data from each of the three treatment conditions with the placebo condition.

[6] = test system: healthy adults; details: for Delta band power during resting conditions vs placebo / Theta band power during resting conditions vs placebo: both resting conditions; for Parietal alpha during task performance vs placebo: both task conditions
Procedure: as §3, §4
For neurophysiological features, average power was extracted from individual spectral bands at individual electrode sites, and then compared across test conditions. Decisions as to which parameters to extract from the spectra were based on the results of prior studies. For the task related EEG, past studies indicate that the frontal midline theta rhythm and the parietal alpha rhythm are sensitive to variations in the attentional demands of tasks, and, in particular, to the increase in difficulty in the working memory tasks employed here. For the EEG recorded under passive resting conditions, past studies indicate that activity in the delta and theta bands at posterior sites, and the alpha rhythm measured over the occipital region, are highly sensitive to variations in alertness and arousal. Each of the individual features was compared between placebo and each drug condition in univariate ANOVAs with repeated measures.

[7] = test system: healthy adults; experiment: Experiment 2: Neurocognitive Function Change (NCFC) index; type: in vivo, human; details: for NCFC index change from pre-medication baseline: 16 subjects, t1-t4
Excerpt: In this hybrid approach, multiple if-then rules gleaned from expert knowledge are applied to data to produce many low-level decisions about the direction of a change between two states. These local decisions are made with respect to single data parameters and the output of these rule-based functions serve as the inputs to a combinatorial network that in turn produces a single summary index of the direction and magnitude of change of neurocognitive function from a baseline state to a test state. As with a knowledgeable human expert assessing an ambiguous problem, decisions about the direction and severity of a change are based on consideration of a variety of pieces of diagnostic evidence, no one of which is central to the overall decision.
The output from the algorithm is the composite of three sub indices. The Behavioral Performance sub index incorporates measures of psychomotor speed and accuracy during task performance. The Neurophysiological Cognitive sub index incorporates attention-related EEG variables recorded during task performance (e.g. parameters of attention-related ERP components such as P300 and spectral measures of task load-related EEG modulation). The Neurophysiological Alertness sub index incorporates alertness-related physiological variables (e.g. measures of low frequency EEG activity and slow, rolling eye movement activity) recorded during passive resting conditions. The composite Neurocognitive Function Change (NCFC) index provides a summary score indicating direction and degree of change in neurocognitive status from a baseline state. In FIG. 6, each time point reflects change from the pre-medication baseline at t0 . […] In addition to the summary NCFC score presented in FIG. 6, consideration of the output of the sub indices can also provide specific information concerning the manner in which neurocognitive function has changed from baseline. […]

[8] = test system: healthy elderly subjects; experiment: Experiment 8: resting and task-related EEG and ERP in elderly; type: in vivo, human
[9] = test system: healthy elderly subjects; experiment: Experiment 8: WM and ITM task performance in elderly; type: in vivo, human
[10] = test system: healthy elderly subjects; experiment: Experiment 8: subjective sleepiness in elderly (Karolinska sleepiness scale)

Row | SMILES | Working memory task performance in an individual subject [1] | Subjective sleepiness relative to placebo [3] | Accuracy in working memory task vs placebo [5] | Reaction time in working memory task vs placebo [5] | Frontal midline theta rhythm during task performance vs placebo [6] | Direction of significant (p < .05) change in spectral power (vs. placebo): Oz alpha ([6]; Resting EEG Eyes Closed) | Direction of significant (p < .05) change in spectral power (vs. placebo): Pz delta ([6]; Resting EEG Eyes Closed) | Direction of significant (p < .05) change in spectral power (vs. placebo): Pz theta ([6]; Resting EEG Eyes Closed) | Direction of significant (p < .05) change in spectral power (vs. placebo): Oz alpha ([6]; Resting EEG Eyes Open) | Direction of significant (p < .05) change in spectral power (vs. placebo): Pz delta ([6]; Resting EEG Eyes Open) | Direction of significant (p < .05) change in spectral power (vs. placebo): Pz theta ([6]; Resting EEG Eyes Open) | Direction of significant (p < .05) change in spectral power (vs. placebo): Pz alpha ([6]; Task EEG High Load) | Direction of significant (p < .05) change in spectral power (vs. placebo): aFz theta ([6]; Task EEG High Load) | Direction of significant (p < .05) change in spectral power (vs. placebo): Pz alpha ([6]; Task EEG Low Load) | Direction of significant (p < .05) change in spectral power (vs. placebo): aFz theta ([6]; Task EEG Low Load) | Delta band power during resting conditions vs placebo [6] | Theta band power during resting conditions vs placebo [6] | Parietal alpha during task performance vs placebo [6] | NCFC index change from pre-medication baseline [7] | also measured
1 | C[C@H](N)Cc1ccccc1 [Dexedrine] | markedly better in the medicated state |  |  |  |  |  |  |  |  |  |  |  |  |  |  |  |  |  |  | Alpha rhythm, high load vs low load, in an individual subject ([2]; Dexedrine 20 mg): larger difficulty-related differences
2 | CCO [alcohol, ethanol] |  | significant increase in subjective sleepiness relative to placebo at the 1.5-2 hr, 2.5-3 hr and 3.5-4 hr post-treatment intervals | no significant main effects | slightly faster in the high load task, and slightly slower in the low load task | increased in the amplitude | ▬ | ▴ | ▴ | ▬ | ▴ | ▴ | ▴ | ▴ | ▴ | ▴ | increased the power | increased the power | increased in the amplitude | similar, though less extreme, pattern of impairment | peak BAC ([4]; first post-treatment interval): 0.08; BAC ([4]; last post-treatment interval): 0.03; NCFC sub index most affected ([7]; in vivo): relative greater effect on the Neurophysiological Attention sub index
3 | Cn1c(=O)c2c(ncn2C)n(C)c1=O [caffeine] |  | did not produce subjective sleepiness ratings significantly different from placebo | No significant behavioral differences | No significant behavioral differences |  | ▬ | ▬ | ▬ | ▬ | ▬ | ▬ | ▾ | ▬ | ▾ | ▬ |  |  | significant reduction in alpha band power at parietal sites | little change from baseline | Resting EEG data relative to placebo [6]: did not produce significant differences in resting EEG data relative to placebo
4 | CN(C)CCOC(c1ccccc1)c1ccccc1 [diphenhydramine] |  |  | less accurately | significantly more slowly | reduction in power for the frontal midline theta rhythm in the high load task only |  |  |  |  |  |  |  |  |  |  | increase in power in the delta | trend towards increasing |  |  | Time of nadir of task performance ([5]; post drug, third post-ingestion interval): 2.5 to 3 h; Alpha band power, eyes-closed resting condition vs placebo [6]: attenuation of power in the alpha band in the eyes-closed resting condition; Alpha band power, eyes-open resting condition vs placebo [6]: no significant change in power during the eyes-open resting condition; Slow eye movement activity during resting conditions ([6]; discussion): increase in the incidence of slow eye movement activity; Amplitude of posterior P200 in ITM task [8]: larger after diphenhydramine ingestion than after placebo ingestion; N160 and P350 ERP in WM task ([8]; low and high load tasks): significantly smaller following diphenhydramine ingestion than placebo; Resting EEG delta and theta power ([8]; posterior regions): increase in power in the delta and theta bands over posterior regions; ITM task RT and word recognition accuracy [9]: did not show significant effects of diphenhydramine; WM task performance [9]: did not significantly affect task performance; Time of greatest subjective sleepiness ([10]; after ingestion): 2.5 h; Subjective sleepiness vs placebo ([10]; elderly, 50 mg): significantly sleepier
5 | COC(=O)C(c1ccccc1)C1CCCCN1 (stereo not drawn) [methylphenidate] | markedly better in the medicated state |  |  |  |  |  |  |  |  |  |  |  |  |  |  |  |  |  |  | P300 amplitude in an individual subject ([2]; methylphenidate 10 mg): larger in the medicated condition

— US6947790B2, “Neurocognitive function EEG measurement method and system” (priority 2000, dated 2005)
